Laboratory results published in the supplement of paper PMC10307832.

What was measured:
Assay in all cases: relative viability (nuclei count vs DMSO), 5 days (fraction); higher = more cells survive
AZD8055 + Navitoclax = compound: COc1ccc(-c2ccc3c(N4CCOC[C@@H]4C)nc(N4CCOC[C@@H]4C)nc3n2)cc1CO [AZD8055] + CC1(C)CCC(c2ccc(Cl)cc2)=C(CN2CCN(c3ccc(C(=O)NS(=O)(=O)c4ccc(N[C@H](CCN5CCOCC5)CSc5ccccc5)c(S(=O)(=O)C(F)(F)F)c4)cc3)CC2)C1 [Navitoclax] (partner 0.5 µM)
Procedure, shortened: (§1)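 Lung cancer cell lines were pin-tool dosed in 1536-well plates on the day after seeding, with either a lone drug or a fixed anchor-drug dose plus five library-drug doses (not always all listed) in √10 steps. Nuclei were counted on 4× images after 5 days. Relative viability is the ratio of treated-well to vehicle-well nuclei counts, with each value a median of duplicate plates.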

AZD8055 + Luminespib = compound: COc1ccc(-c2ccc3c(N4CCOC[C@@H]4C)nc(N4CCOC[C@@H]4C)nc3n2)cc1CO [AZD8055] + CCNC(=O)c1noc(-c2cc(C(C)C)c(O)cc2O)c1-c1ccc(CN2CCOCC2)cc1 [Luminespib] (partner 0.01 µM)
Procedure, shortened: as §1

AZD8055 + Foretinib = compound: COc1ccc(-c2ccc3c(N4CCOC[C@@H]4C)nc(N4CCOC[C@@H]4C)nc3n2)cc1CO [AZD8055] + COc1cc2c(Oc3ccc(NC(=O)C4(C(=O)Nc5ccc(F)cc5)CC4)cc3F)ccnc2cc1OCCCN1CCOCC1 [Foretinib] (partner 0.25 µM)
Procedure, shortened: as §1

AZD8055 + Linsitinib = compound: COc1ccc(-c2ccc3c(N4CCOC[C@@H]4C)nc(N4CCOC[C@@H]4C)nc3n2)cc1CO [AZD8055] + C[C@]1(O)C[C@@H](c2nc(-c3ccc4ccc(-c5ccccc5)nc4c3)c3c(N)nccn32)C1 [Linsitinib] (partner 1 µM)
Procedure, shortened: as §1

Cell Line | relative viability (AZD8055 + Navitoclax; first compound 0.01 µM) | relative viability (AZD8055 + Navitoclax; first compound 0.03162 µM) | relative viability (AZD8055 + Navitoclax; first compound 0.1 µM) | relative viability (AZD8055 + Navitoclax; first compound 0.3162 µM) | relative viability (AZD8055 + Navitoclax; first compound 1 µM) | relative viability (AZD8055 + Luminespib; first compound 0.01 µM) | relative viability (AZD8055 + Luminespib; first compound 0.03162 µM) | relative viability (AZD8055 + Luminespib; first compound 0.1 µM) | relative viability (AZD8055 + Luminespib; first compound 0.3162 µM) | relative viability (AZD8055 + Luminespib; first compound 1 µM) | relative viability (AZD8055 + Foretinib; first compound 0.01 µM) | relative viability (AZD8055 + Foretinib; first compound 0.03162 µM) | relative viability (AZD8055 + Foretinib; first compound 0.1 µM) | relative viability (AZD8055 + Foretinib; first compound 0.3162 µM) | relative viability (AZD8055 + Foretinib; first compound 1 µM) | relative viability (AZD8055 + Linsitinib; first compound 0.01 µM) | relative viability (AZD8055 + Linsitinib; first compound 0.03162 µM) | relative viability (AZD8055 + Linsitinib; first compound 0.1 µM) | relative viability (AZD8055 + Linsitinib; first compound 0.3162 µM) | relative viability (AZD8055 + Linsitinib; first compound 1 µM)
LOU-NH91 | 0.708 | 0.642 | 0.587 | 0.466 | 0.437 | 0.349 | 0.348 | 0.325 | 0.282 | 0.317 | 0.982 | 0.891 | 0.761 | 0.562 | 0.561 | 0.889 | 0.835 | 0.629 | 0.585 | 0.524
LU99A | 0.69 | 0.517 | 0.232 | 0.164 | 0.191 | 0.234 | 0.189 | 0.185 | 0.191 | 0.188 | 0.859 | 0.627 | 0.681 | 0.264 | 0.302 | 0.316 | 0.306 | 0.196 | 0.203 | 0.184
LXF-289 | 0.979 | 0.995 | 0.831 | 0.694 | 0.529 | 0.715 | 0.599 | 0.623 | 0.309 | 0.32 | 1.05 | 1.02 | 0.962 | 0.763 | 0.72 | 1 | 0.997 | 0.812 | 0.568 | 0.515
NCI-H23 | 0.879 | 0.847 | 0.677 | 0.318 | 0.253 | 0.193 | 0.216 | 0.208 | 0.229 | 0.297 | 1.02 | 0.841 | 0.584 | 0.451 | 0.347 | 0.521 | 0.484 | 0.294 | 0.244 | 0.259
NCI-H322M | 1.17 | 1.09 | 0.845 | 0.488 | 0.546 | 0.797 | 0.597 | 0.357 | 0.348 | 0.289 | 0.933 | 0.802 | 0.781 | 0.573 | 0.6 | 0.891 | 0.771 | 0.557 | 0.497 | 0.461
NCI-H441 | 0.748 | 0.955 | 0.464 | 0.334 | 0.251 | 0.347 | 0.291 | 0.283 | 0.22 | 0.221 | 0.925 | 0.94 | 0.68 | 0.349 | 0.37 | 0.515 | 0.337 | 0.346 | 0.203 | 0.33
NCI-H460 | 1.19 | 0.892 | 0.523 | 0.121 | 0.0653 | 0.03 | 0.029 | 0.0182 | 0.0223 | 0.0329 | 1.12 | 1.09 | 0.812 | 0.376 | 0.206 | 0.555 | 0.213 | 0.206 | 0.0409 | 0.0438
